Test results from patent EP4722201A1, “3-PHENYLISOXAZOLINE-5-CARBOXAMIDE COMPOUND, AND PREPARATION METHOD THEREFOR, HERBICIDAL COMPOSITION THEREOF AND USE THEREOF” (Jiangsu Flag Chemical Industry Co., Ltd, priority 2023, dated 2024).

What was measured:
Experiment in all cases: Indoor herbicide activity determination, Seed Treatment; pre-emergence (soil spray)
Format in all cases: in vivo
Lolium multiflorum = test system: Lolium multiflorum
Source text: (§1) The testing method for herbicide activity of the compound of the present invention was as follows:
(§2) Seed Treatment; pre-emergence: quantitative seeds of gramineous weeds (Echinochloa crusgalli, Eleusine indica, Digitaria sanguinalis, Alopecurus japonicus, Beckmannia syzigachne, Leptochloa chinensis, Polypogon fugax, Alopecurus aequalis, Lolium multiflorum, Poa annua, Aegilops tauschii, Avena fatua, Alopecurus myosuroides, Alopecurus japonicus and Alopecurus aequalis), broad-leaved weeds (Eclipta prostrata, Amaranthus retroflexus, Rorippa indica, Malachium aquaticum, Veronica polita, Conyza canadensis, Sesbania cannabina, Sagittariatrifolia and Schoenoplectiella juncoides), and Cyperus iria were sown in plastic pots having a diameter of 7 cm and holes at the bottom and filled with nutrient soil (sandy soil, pH 6.1, organic matter 1%) respectively, the seeds were covered with an appropriate amount of soil after being sown, then the soil was wetted with water from the bottom, the seeds were cultured in a constant-temperature illuminated culture room for 24 h, and the soil was sprayed by using a 3WP-2000 traveling spray tower produced by the Nanjing Institute of Agricultural Mechanization of the Ministry of Agriculture, where a rotational speed of a main shaft was 96 mm/r, a spray height was 300 mm, an effective spraying range of a nozzle was 350 mm, a spray area was 0.35 m^2, and a flow rate at the nozzle was 390 mL/min.
(§3) Post-emergence: an appropriate quantity of seeds of gramineous weeds (Echinochloa crusgalli, Eleusine indica, Digitaria sanguinalis, Alopecurus japonicus, Beckmannia syzigachne, Leptochloa chinensis, Polypogon fugax, Alopecurus aequalis, Lolium multiflorum, Poa annua, Aegilops tauschii, Avena fatua, Alopecurus myosuroides, Alopecurus japonicus and Alopecurus aequalis), broad-leaved weeds (Eclipta prostrata, Amaranthus retroflexus, Rorippa indica, Malachium aquaticum, Veronica polita, Conyza canadensis, Sesbania cannabina, Sagittariatrifolia and Schoenoplectiella juncoides), and Cyperus iria were sown in plastic pots having a diameter of 7 cm and holes at the bottom and filled with nutrient soil (sandy soil, pH 6.1, organic matter 1%) respectively, the seeds were covered with an appropriate amount of soil after being sown, then the soil was wetted with water from the bottom, the seeds were cultured in a constant-temperature illuminated culture room until a 2-4 leaf stage, and stems and leaves underwent spray treatment. After the treatment, the test materials were placed in a laboratory and cultured in the constant-temperature illuminated culture room after the liquid was naturally dry in the shade, and results were determined 21 days later. Inhibition rate of fresh weight % = (1−(fresh weight of treated plants)/(fresh weight of control plants)) × 100% [formula]

Alopecurus japonicus = test system: Alopecurus japonicus
Source text: as §1, §2, §3

Cyperus iria = details: read-out: Herbicidal activities (inhibition rate) Cyperus iria; for inhibition at 120 g/ha: 120 g a.i./ha; for inhibition at 60 g/ha: 60 g a.i./ha
Source text: as §1, §2, §3

Aegilops tauschii = details: read-out: Herbicidal activities (inhibition rate) Aegilops tauschii; for inhibition at 120 g/ha: 120 g a.i./ha; for inhibition at 60 g/ha: 60 g a.i./ha
Source text: as §1, §2, §3

Eleusine indica = test system: Eleusine indica
Source text: as §1, §2, §3

Alopecurus myosuroides = test system: Alopecurus myosuroides
Source text: as §1, §2, §3

Leptochloa chinensis = test system: Leptochloa chinensis
Source text: as §1, §2, §3

Eclipta prostrata = details: read-out: Herbicidal activities (inhibition rate) Eclipta prostrata; for inhibition at 120 g/ha: 120 g a.i./ha; for inhibition at 60 g/ha: 60 g a.i./ha
Source text: as §1, §2, §3

Row | Compound | Herbicidal activities, Lolium multiflorum (inhibition rate class) (Lolium multiflorum; Dosage 240 g a.i./ha) | Herbicidal activities, Alopecurus japonicus (inhibition rate class) (Alopecurus japonicus; Dosage 240 g a.i./ha) | inhibition at 120 g/ha (Cyperus iria) [%] | inhibition at 120 g/ha (Aegilops tauschii) [%] | Herbicidal activities, Eleusine indica (inhibition rate class) (Eleusine indica; Dosage 240 g a.i./ha) | Herbicidal activities, Alopecurus myosuroides (inhibition rate class) (Alopecurus myosuroides; Dosage 240 g a.i./ha) | Herbicidal activities, Leptochloa chinensis (inhibition rate class) (Leptochloa chinensis; Dosage 240 g a.i./ha) | Herbicidal activities, Lolium multiflorum (inhibition rate class) (Lolium multiflorum; Dosage 120 g a.i./ha) | Herbicidal activities, Alopecurus japonicus (inhibition rate class) (Alopecurus japonicus; Dosage 120 g a.i./ha) | inhibition at 60 g/ha (Cyperus iria) [%] | inhibition at 60 g/ha (Aegilops tauschii) [%] | Herbicidal activities, Eleusine indica (inhibition rate class) (Eleusine indica; Dosage 120 g a.i./ha) | Herbicidal activities, Alopecurus myosuroides (inhibition rate class) (Alopecurus myosuroides; Dosage 120 g a.i./ha) | Herbicidal activities, Leptochloa chinensis (inhibition rate class) (Leptochloa chinensis; Dosage 120 g a.i./ha) | inhibition at 60 g/ha (Eclipta prostrata) [%] | also measured
1 | C=CC1(C(=O)N[C@H]2C[C@@H](C(=O)OCCSC)C2)CC(c2cc(F)cc(F)c2)=NO1 (mixture of isomers) [I-8] | A (A indicates that the inhibition rate was greater than or equal to 80% to 100%) | A (A indicates that the inhibition rate was greater than or equal to 80% to 100%) | 80 to 100 | 80 to 100 | A (A indicates that the inhibition rate was greater than or equal to 80% to 100%) | A (A indicates that the inhibition rate was greater than or equal to 80% to 100%) | A (A indicates that the inhibition rate was greater than or equal to 80% to 100%) |  |  |  |  |  |  |  |  | 
2 | C=CC1(C(=O)N[C@H]2C[C@@H](C(=O)OCC[S+](C)[O-])C2)CC(c2cc(F)cc(F)c2)=NO1 (stereo partly drawn) [I-9] | A (A indicates that the inhibition rate was greater than or equal to 80% to 100%) | A (A indicates that the inhibition rate was greater than or equal to 80% to 100%) | 80 to 100 | 80 to 100 | A (A indicates that the inhibition rate was greater than or equal to 80% to 100%) | A (A indicates that the inhibition rate was greater than or equal to 80% to 100%) | A (A indicates that the inhibition rate was greater than or equal to 80% to 100%) |  |  |  |  |  |  |  |  | inhibition at 120 g/ha (Eclipta prostrata): 60 to 80%
3 | C=CC1(C(=O)N[C@H]2C[C@@H](C(=O)OCCS(C)(=O)=O)C2)CC(c2cc(F)cc(F)c2)=NO1 (stereo partly drawn) [I-10] | A (A indicates that the inhibition rate was greater than or equal to 80% to 100%) | A (A indicates that the inhibition rate was greater than or equal to 80% to 100%) | 80 to 100 | 80 to 100 | A (A indicates that the inhibition rate was greater than or equal to 80% to 100%) | A (A indicates that the inhibition rate was greater than or equal to 80% to 100%) | A (A indicates that the inhibition rate was greater than or equal to 80% to 100%) |  |  |  |  |  |  |  |  | inhibition at 120 g/ha (Eclipta prostrata): 60 to 80%
4 | C=C[C@]1(C(=O)N[C@H]2C[C@@H](C(=O)NOC)C2)CC(c2cc(F)cc(F)c2)=NO1 [I-23] |  |  |  |  |  |  |  | A (A indicates that the inhibition rate was greater than or equal to 80% to 100%) | A (A indicates that the inhibition rate was greater than or equal to 80% to 100%) | 80 to 100 | 80 to 100 | A (A indicates that the inhibition rate was greater than or equal to 80% to 100%) | A (A indicates that the inhibition rate was greater than or equal to 80% to 100%) | A (A indicates that the inhibition rate was greater than or equal to 80% to 100%) | 60 to 80 | 
5 | C=C[C@]1(C(=O)N[C@H]2C[C@@H](C(=O)OCCCCC)C2)CC(c2cc(F)cc(Cl)c2)=NO1 [I-31] |  |  |  |  |  |  |  |  |  | 60 to 80 | 60 to 80 | A (A indicates that the inhibition rate was greater than or equal to 80% to 100%) | A (A indicates that the inhibition rate was greater than or equal to 80% to 100%) | A (A indicates that the inhibition rate was greater than or equal to 80% to 100%) | 80 to 100 | 
6 | C=C[C@]1(C(=O)N[C@H]2C[C@@H](C(=O)OCC=CC)C2)CC(c2cc(F)cc(Cl)c2)=NO1 [I-32] |  |  |  |  |  |  |  | B (B indicates that the inhibition rate was greater than or equal to 60% to less than 80%) | B (B indicates that the inhibition rate was greater than or equal to 60% to less than 80%) | 60 to 80 | 60 to 80 | A (A indicates that the inhibition rate was greater than or equal to 80% to 100%) | A (A indicates that the inhibition rate was greater than or equal to 80% to 100%) | A (A indicates that the inhibition rate was greater than or equal to 80% to 100%) | 80 to 100 | 
7 | C=C[C@]1(C(=O)N[C@H]2C[C@@H](C(=O)OCC(F)(F)C(F)F)C2)CC(c2cc(F)cc(OC(F)(F)F)c2)=NO1 [I-64] |  |  |  |  |  |  |  | A (A indicates that the inhibition rate was greater than or equal to 80% to 100%) | A (A indicates that the inhibition rate was greater than or equal to 80% to 100%) |  | 60 to 80 | B (B indicates that the inhibition rate was greater than or equal to 60% to less than 80%) | A (A indicates that the inhibition rate was greater than or equal to 80% to 100%) | A (A indicates that the inhibition rate was greater than or equal to 80% to 100%) | 80 to 100 | 
8 | C=C[C@]1(C(=O)N[C@H]2C[C@@H](C(=O)OCCOCC)C2)CC(c2cc(F)cc(OC(F)(F)F)c2)=NO1 [I-65] |  |  |  |  |  |  |  | A (A indicates that the inhibition rate was greater than or equal to 80% to 100%) | A (A indicates that the inhibition rate was greater than or equal to 80% to 100%) |  | 80 to 100 | B (B indicates that the inhibition rate was greater than or equal to 60% to less than 80%) | A (A indicates that the inhibition rate was greater than or equal to 80% to 100%) | A (A indicates that the inhibition rate was greater than or equal to 80% to 100%) | 60 to 80 | 
9 | CSCCOC(=O)[C@@H]1C=C[C@H](NC(=O)C2(C)CC(c3cc(F)cc(C(F)(F)F)c3)=NO2)C1 (stereo partly drawn) [I-497] |  |  | 80 to 100 | 80 to 100 |  |  |  |  |  |  |  |  |  |  |  | Herbicidal activity (inhibition rate class), Lolium multiflorum (Lolium multiflorum; Dosage 240 g a.i./ha): A (A indicates that the inhibition rate was greater than or equal to 80% to 100%); Herbicidal activity (inhibition rate class), Alopecurus japonicus (Alopecurus japonicus; Dosage 240 g a.i./ha): A (A indicates that the inhibition rate was greater than or equal to 80% to 100%); Herbicidal activity (inhibition rate class), Eleusine indica (Eleusine indica; Dosage 240 g a.i./ha): A (A indicates that the inhibition rate was greater than or equal to 80% to 100%); Herbicidal activity (inhibition rate class), Alopecurus myosuroides (Alopecurus myosuroides; Dosage 240 g a.i./ha): A (A indicates that the inhibition rate was greater than or equal to 80% to 100%); Herbicidal activity (inhibition rate class), Leptochloa chinensis (Leptochloa chinensis; Dosage 240 g a.i./ha): A (A indicates that the inhibition rate was greater than or equal to 80% to 100%)
